From paper PMC7557804, “The Anti-Microbial Peptide (Lin-SB056-1)2-K Reduces Pro-Inflammatory Cytokine Release through Interaction with Pseudomonas aeruginosa Lipopolysaccharide” (Antibiotics, 2020)
Entries after “also recorded” stand apart in the source; their conditions may differ.

What was measured:
P. aeruginosa [1] = details: 3-D lung epithelial cell model, cited from earlier work
Description: (§1) In our previous work, we explored different strategies to enhance the anti-bacterial and anti-biofilm activity of the semi-synthetic peptide lin-SB056-1 [12] in physiologically relevant, host-mimicking conditions that are known to interfere with the stability and efficacy of AMPs.

[2] = tested on: reference strain and CF lung isolates of P. aeruginosa; details: cell culture medium; cited from earlier work
Description: as §1

[3] = LAL assay, LPS neutralization; assay type: biochemical, Escherichia coli; details: E. coli 011:B4 LPS 2 EU/mL, 37 °C
Method: The ability of lin-SB056-1 and (lin-SB056-1)2-K to neutralize the activity of LPS was analyzed using a standardized LAL assay (Pierce LAL chromogenic endotoxin quantitation kit; Thermo Fisher Scientific). Peptides at different concentrations (2.4 to 19.25 μM) were pre-incubated with E. coli 011:B4 LPS (2 Endotoxin Units (EU)/mL; EU = unit of measurement for endotoxin activity) for 30 min (37 °C, shaking) in order to promote the interaction between the two molecules. LPS alone was used as positive control. Following incubation, peptide-treated and untreated samples were mixed with the LAL reagent (1:1 ratio) and incubated for 10 min at 37 °C. Subsequently, 100 μL of the chromogenic substrate were added and incubated with the samples for 6 min. The reaction was terminated by adding 100 μL of acetic acid (25% v/v), and absorbance was measured at 405 nm ([…]) using a microplate reader (Multiscan FC, Life Technologies Italia, Monza, Italy). The amount of peptide-sequestered LPS was determined as follows: LPS neutralization (%) = [100 − (ODpeptide/ODpositive control × 100)].

THP-1 macrophages = assay: Cytotoxicity (LDH release) towards THP-1 macrophages; assay type: cell-based, Human; details: 4 h
Method: Human non-small-cell lung adenocarcinoma A549 cells (ATCC CCL-185; LGC Standards, Milan, Italy) and human monocytic THP-1 cells (ATCC TIB-202; LGC Standards) were cultured in tissue culture flasks in Dulbecco’s modified essential medium (DMEM) (Euroclone, Milan, Italy) and RPMI 1640 medium (Euroclone), respectively. Both media were supplemented with 2 mM L-glutamine (Euroclone) and 10% heat-inactivated fetal bovine serum (FBS; Euroclone). Confluent monolayers were detached from the culture flask with 0.25% trypsin/1 mM EDTA solution (Euroclone), suspended in complete culture medium and seeded into flat-bottom 96-well plates at a final density of 1 × 10^4 cells/well (A549) and 2 × 10^4 cells/well (THP-1). A549 cells were cultured for 24 h at 37 °C, 5% CO2 in order to allow adhesion and formation of semi-confluent monolayers. THP-1 cells were cultured for 3 days (37 °C, 5% CO2) in the presence of 100 nM TPA (Sigma-Aldrich, St. Louis, MO, USA) to induce their differentiation into macrophage-like cells.
The cytotoxicity of lin-SB056-1 and (lin-SB056-1)2-K towards A549 and THP-1 cells was evaluated to exclude a possible correlation between reduction in cytokine levels and decrease in cell numbers. To this end, culture supernatants of cells stimulated with LPS in the presence of the peptides were employed to quantify the amount of cytoplasmic LDH released by dead cells. Cells incubated in culture medium alone or in the presence of LPS served as an indication of spontaneous cell death (cell viability controls), while cells treated with a commercial lysis buffer (Pierce LDH cytotoxicity assay kit, Thermo Fisher Scientific) were used as cell death control (100% cell lysis). The enzymatic activity of LDH in cell supernatants was measured using the Pierce LDH cytotoxicity assay kit (Thermo Fisher Scientific) following manufacturer’s instructions. The cytotoxic effect was determined as follows: cytotoxicity (%) = [(LDH activity of A/LDH activity of B) × 100], where A represents peptide-treated or untreated cells (both in the presence and absence of LPS), and B corresponds to the cell lysis control.

P. aeruginosa [4] = details: in vivo-like models of lung infection; cited from earlier work
Description: The global issue of anti-microbial resistance coupled with the lack of new treatments for bacterial infections has stimulated interest in the use of AMPs for therapeutic purposes. Due to their unique mechanism(s) of action and wide spectrum of biological activities, AMPs are emerging as a promising alternative to conventional anti-microbial agents for the management of antibiotic-resistant and biofilm-associated infections. Although mainly intended for topical use due to potential toxicity and reduced stability under physiological conditions, many different peptides with anti-micro ...

In the case of “[KWKIRVRLSA]2-K [(lin-SB056-1)2-K, dendrimeric derivative of lin-SB056-1]”, the “reduction in the number of biofilm-forming bacteria” value (P. aeruginosa [1]; 19.25 µM) is given as ≤ 99.9%, the “anti-biofilm activity” value (P. aeruginosa [1]; compared to lin-SB056-1 and lin-SB056-1/EDTA) is given as “stronger anti-biofilm activity compared to both lin-SB056-1 and the lin-SB056-1/EDTA combination” and the “MIC (Minimal Inhibitory Concentration)” value [2] is given as 2.4 to 9.6 µM. For the same substance, the “fold lower MIC compared to lin-SB056-1” value [2] was 4 to 16 fold, the LPS neutralization ([3]; 19.25 μM peptide, pre-incubation 30 min, shaking, LAL reagent 10 min, chromogenic substrate 6 min, absorbance 405 nm (OD450), vs peptide-untreated control, mean of three independent experiments) was ~100% and the “LPS neutralization / LAL activity” value ([3]; 2.4 to 19.25 μM peptide, 30 min) was “higher LPS-binding ability than lin-SB056-1; also recorded: reduction of LAL activity”. For the same substance, the “cell death (LDH release), with LPS” value (THP-1 macrophages; LPS-stimulated THP-1 macrophages, up to 19.25 μM (highest tested), 37 °C, 5% CO2, relative to cell lysis control, at least three independent experiments) was “less than 5%”, the “toxicity” value (THP-1 macrophages; LPS-stimulated THP-1 macrophages, up to 19.25 μM, LDH release) was “no detectable toxicity” and the “cell death (LDH release), co-cultured with peptide and LPS” value (THP-1 macrophages; THP-1 macrophages, 19.25 μM peptide with LPS, 37 °C, 5% CO2, mean of at least three independent experiments) was 5%. The “cell death (LDH release), in the absence of LPS” value (THP-1 macrophages; THP-1 macrophages, 19.25 μM peptide, no LPS, 37 °C, 5% CO2, mean of at least three independent experiments) was 14% and the “anti-bacterial and anti-biofilm activity in in vivo-like models” value (P. aeruginosa [4]) was “remarkable anti-bacterial and anti-biofilm activity”.
